pIC50: −log10 of the molar value.
Assays:
[1] = target: cAMP PDE; test: Phosphodiesterase (PDE) inhibitory activity, cAMP substrate; assay type: biochemical, rat; conditions: 0.14 μM 14C-labeled cAMP, pH 8.0, 30° C., 20 minutes, crude enzyme from rat brains; read-out: I50 cAMP PDE
Method: (§1) The test was carried out following essentially the method of A. L. Pichard and Y. U. Chung [Journal of Biological Chemistry, 251, 5726-5737 (1976)]. A crude enzymatic solution derived from rat brains was used as the source of cAMP PDE.
(§2) ^14 C-labeled cAMP was used as the substrate. It was employed in a 0.2M Tris-hydrochloric acid buffer solution (pH 8.0) in an amount sufficient to provide a final concentration of 0.14 μM. "Tris" is tris(hydroxymethyl)aminomethane. The substrate solution was mixed with an appropriate amount of the compound under test dissolved in 2-5 μl of dimethyl sulfoxide and with 20 μl of a snake venom solution and 40 μl of the crude enzyme solution. Sufficient Tris-hydrochloric acid buffer was added to make a total volume of 100 μl. The mixture was allowed to react at 30° C. for 20 minutes. At the end of this time, the reaction mixture was treated with an Amberlite (trade mark) IRP-58 resin and the level of residual adenosine radioactivity in the product was determined.

[2] = target: cGMP PDE; test: Phosphodiesterase (PDE) inhibitory activity, cGMP substrate; assay type: biochemical; conditions: cGMP as substrate, crude enzyme from rat brains; read-out: I50 cGMP PDE
Method: as §1, §2
The experiment was repeated, except that cyclic guanosine monophosphate (cGMP) was employed as the substrate instead of cAMP. The I50 value against cGMP PDE was also calculated.

[3] = test system: cerebral blood flow; test: Improving cerebral blood flow; assay type: in vivo, rabbit
Excerpt: The "duration (T1/2)" is the time in minutes required for the increase in cerebral blood flow to reduce by one half.

| Structure (SMILES) | pIC50 [1] | pIC50 [2] | further results |
| --- | --- | --- | --- |
| Nc1ncnc2c1ncn2C1OC2=CC(C(=O)O)([C@@H](O)C(=O)O)OC2[C@H]1OC(=O)c1ccccc1 (stereo partly shown) [Compound No. 36, O^2' -benzoylgriseolic acid] | 5.17 | 4.32 |  |
| Nc1ncnc2c1ncn2C1OC2=CC(C(=O)O)([C@@H](OC(=O)c3ccccc3)C(=O)O)OC2[C@H]1O (stereo partly shown) [Compound No. 37, O^7' -benzoylgriseolic acid] | 6.51 | 5.54 |  |
| O=C(Nc1ncnc2c1ncn2C1OC2=CC(C(=O)O)([C@@H](OC(=O)c3ccccc3)C(=O)O)OC2[C@H]1O)c1ccccc1 (stereo partly shown) [Compound No. 39, N^6,O^7' -dibenzoylgriseolic acid] | 4.48 | 3.95 |  |
| Nc1ncnc2c1ncn2C1OC2=CC(C(=O)O)([C@@H](OC(=O)c3ccccc3)C(=O)O)OC2[C@H]1OC(=O)c1ccccc1 (stereo partly shown) [Compound No. 40, O^2',O^7' -dibenzoylgriseolic acid] | 5.49 | 4.05 |  |
| CC(=O)O[C@@H]1C2OC(C(=O)O)([C@@H](OC(C)=O)C(=O)O)C=C2OC1n1cnc2c(N)ncnc21 (stereo partly shown) [Compound No. 41, O^2',O^7' -diacetylgriseolic acid] | 5.03 | 3.61 |  |
| N=c1c2ncn(C3OC4=CC(C(=O)O)([C@@H](O)C(=O)O)OC4[C@H]3O)c2ncn1Cc1ccccc1 (stereo partly shown) [Compound No. 45, N^1 -benzylgriseolic acid] | 6.22 | 5.92 |  |
| CC(=O)O[C@@H](C(=O)O)C1(C(=O)O)C=C2OC(n3cnc4c(=N)n(Cc5ccccc5)cnc43)[C@H](O)C2O1 (stereo partly shown) [Compound No. 46, O^7' -acetyl-N^1 -benzylgriseolic acid] | 5.74 | 6.05 |  |
| O=C(O)C(O)C1(C(=O)O)C=C2OC(n3cnc4c(=O)[nH]cnc43)C(O)C2O1 (stereo not shown) [Compound No. 51, 6-desamino-6-hydroxygriseolic acid] | 6.49 | 6.89 |  |
| O=C(O)[C@H](O)C1(C(=O)O)C=C2OC(n3cnc4cncnc43)[C@H](O)C2O1 (stereo partly shown) [Compound No. 53, 6-desamino-6-hydrogriseolic acid] | 4.85 | 5.92 |  |
| CNc1ncnc2c1ncn2C1OC2=CC(C(=O)O)([C@@H](O)C(=O)O)OC2[C@H]1O (stereo partly shown) [Compound No. 58, N^6 -methylgriseolic acid] | 5.70 | 4.85 |  |
| CN(C)c1ncnc2c1ncn2C1OC2=CC(C(=O)O)([C@@H](O)C(=O)O)OC2[C@H]1O (stereo partly shown) [Compound No. 59, N^6 -dimethylgriseolic acid] | 4.51 | 4.41 |  |
| NNc1ncnc2c1ncn2C1OC2=CC(C(=O)O)([C@@H](O)C(=O)O)OC2[C@H]1O (stereo partly shown) [Compound No. 60, 6-desamino-6-hydrazinogriseolic acid] | 5.27 | 5.32 |  |
| O=C(O)[C@H](O)C1(C(=O)O)C=C2OC(n3cnc4c(NCc5ccccc5)ncnc43)[C@H](O)C2O1 (stereo partly shown) [Compound No. 63, N^6 -benzylgriseolic acid] | 5.13 | 5.01 |  |
| [N-]=[N+]=N[C@H](C(=O)O)C1(C(=O)O)C=C2OC(n3cnc4c(N)ncnc43)[C@H](O)C2O1 (stereo partly shown) [Compound No. 81, 7'-azido-7'-deoxygriseolic acid] | 5.36 | 4.89 |  |
| Nc1ncnc2c1ncn2C1OC2=CC(C(=O)O)(C(Cl)C(=O)O)OC2[C@H]1O (stereo partly shown) [Compound No. 88, 7'-chloro-7'-deoxygriseolic acid] | 5.82 | 4.83 |  |
| COc1ncnc2c1ncn2C1OC2=CC(C(=O)O)([C@@H](O)C(=O)O)OC2[C@H]1O (stereo partly shown) [Compound No. 124, 6-desamino-6-methoxygriseolic acid] | 5.00 | 5.31 |  |
| Nc1ncnc2c1ncn2C1OC2=CC(CC(=O)O)(C(=O)O)OC2[C@H]1O (stereo partly shown) [Compound No. 133, 7'-deoxygriseolic acid] | 6.85 | 5.96 | Duration (T 1/2) ([3]; 10 mg/kg): > 60 min; Increase in cerebral blood flow (Vp), ratio to papaverine 1 mg/kg ([3]; 10 mg/kg): 10 |
| Nc1ncnc2c1ncn2C1OC2=CC(C(=O)O)([C@H](N)C(=O)O)OC2[C@H]1O (stereo partly drawn) [Compound No. 135, 7'(S)-amino-7'-deoxygriseolic acid] | 5.70 | 5.38 |  |
| Nc1ncnc2c1ncn2C1OC2=CC(C(=O)O)([C@H](Br)C(=O)O)OC2[C@H]1O (stereo partly drawn) [Compound No. 137, 7'(S)-bromo-7'-deoxygriseolic acid] | 5.47 | 4.72 |  |

| Structure (SMILES) | pIC50 [1] | pIC50 [2] | further results |
| --- | --- | --- | --- |
| O=C(O)CC1(C(=O)O)C=C2OC(n3cnc4c(=O)[nH]cnc43)C(O)C2O1 (stereo not shown) [Compound No. 138, 6-desamino-7'-deoxy-6-hydroxygriseolic acid] | 6.85 | 7.30 | Duration (T 1/2) ([3]; 10 mg/kg): > 60 min; Increase in cerebral blood flow (Vp), ratio to papaverine 1 mg/kg ([3]; 10 mg/kg): 5.5 |
| Nc1ncnc2c1ncn2C1OC2=CC(C(=O)O)([C@H](O)C(=O)O)OC2[C@H]1O (stereo partly drawn) [Compound No. 140, 7'-deoxy-7'(S)-hydroxygriseolic acid] | 6.12 | 5.55 |  |
| CC(=O)O[C@H](C(=O)O)C1(C(=O)O)C=C2OC(n3cnc4c(N)ncnc43)[C@H](O)C2O1 (stereo partly drawn) [Compound No. 141, 7'(S)-acetoxy-7'-deoxygriseolic acid] | 6.66 | 5.98 | Duration (T 1/2) ([3]; 10 mg/kg): > 60 min; Increase in cerebral blood flow (Vp), ratio to papaverine 1 mg/kg ([3]; 10 mg/kg): 9.2 |
| Nc1ncnc2c1ncn2C1OC2=CC(C(=O)O)([C@@H](O)C(=O)O)OC2[C@@H]1Cl (stereo partly drawn) [Compound No. 142, 2'(S)-chloro-2'-deoxygriseolic acid] | 6.82 | 5.60 |  |
| Nc1ncnc2c1ncn2C1OC2=CC(C(=O)O)([C@@H](O)C(=O)O)OC2[C@@H]1Br (stereo partly drawn) [Compound No. 143, 2'(S)-bromo-2'-deoxygriseolic acid] | 7.05 | 5.39 |  |
| Nc1ncnc2c1ncn2C1CC2OC(C(=O)O)([C@@H](O)C(=O)O)C=C2O1 (stereo partly shown) [Compound No. 144, 2'-deoxygriseolic acid] | 6.72 | 5.96 |  |
| Nc1ncnc2c1nc(Br)n2C1OC23OC(C(=O)O)C(C(=O)O)(OC2[C@H]1O)C3Br (stereo partly drawn) [Compound No. 187, 4',7'-anhydro-5',α,8-dibromo-4'α-hydroxygriseolic acid] | 4.46 | 4.49 |  |
| Nc1ncnc2c1nc(S)n2C1OC2=CC(C(=O)O)([C@@H](O)C(=O)O)OC2[C@H]1O (stereo partly shown) [Compound No. 192, 8-mercaptogriseolic acid] | 4.52 | 4.30 |  |
| COc1nc2c(N)ncnc2n1C1OC2=CC(C(=O)O)([C@@H](O)C(=O)O)OC2[C@H]1O (stereo partly shown) [Compound No. 195, 8-methoxygriseolic acid] | 5.41 | 5.49 |  |
| Nc1ncnc2c1nc(Br)n2C1OC2=CC(C(=O)O)([C@@H](O)C(=O)O)OC2[C@H]1O (stereo partly shown) [Compound No. 196, 8-bromogriseolic acid] | 5.60 | 5.77 |  |
| O=C(O)C(O)C1(C(=O)O)C=C2OC(n3c(Br)nc4c(=O)[nH]cnc43)C(O)C2O1 (stereo not shown) [Compound No. 197, 8-bromo-6-desamino-6-hydroxygriseolic acid] | 4.60 | 4.88 |  |
| [N-]=[N+]=N[C@H]1C2OC(C(=O)O)([C@@H](O)C(=O)O)C=C2OC1n1cnc2c(N)ncnc21 (stereo partly drawn) [Compound No. 247, 2'(S)-azido-2'-deoxygriseolic acid] | 6.35 | 5.19 |  |
| Nc1ncnc2c1ncn2C1OC2=CC(C(=O)O)([C@@H](O)C(=O)O)OC2[C@@H]1N (stereo partly drawn) [Compound No. 248, 2'(S)-amino-2'-deoxygriseolic acid] | 5.49 | 4.90 |  |
| Nc1ncnc2c1ncn2C1OC2=CC(C(=O)O)([C@@H](O)C(=O)O)OC2[C@@H]1I (stereo partly drawn) [Compound No. 249, 2'-deoxy-2'(S)-iodogriseolic acid] | 6.36 | 5.55 |  |
| COC(=O)C1=C(C)NC(C)=C(C(=O)OCCN(C)Cc2ccccc2)C1c1cccc([N+](=O)[O-])c1 (stereo not shown) [Nicardipine, reference compound] |  |  | Duration (T 1/2) ([3]; 0.01 mg/kg): 14 min; Increase in cerebral blood flow (Vp), ratio to papaverine 1 mg/kg ([3]; 0.01 mg/kg): 3.2 |
| COc1ccc(Cc2nccc3cc(OC)c(OC)cc23)cc1OC [Papaverine, papaverine, reference compound] |  |  | Change in blood pressure (pascals) ([3]; 1 mg/kg): -1040 pascals; Change in blood pressure mm Hg ([3]; 1 mg/kg): -7.8 mm Hg |
| CC[C@]12CCCN3CCc4c(n(c5ccccc45)[C@@](O)(C(=O)OC)C1)[C@@H]32 [Vincamine, reference compound] |  |  | Duration (T 1/2) ([3]; 1 mg/kg): 3.2 min; Increase in cerebral blood flow (Vp), ratio to papaverine 1 mg/kg ([3]; 1 mg/kg): 1.7; Duration (T 1/2) ([3]; 2.5 mg/kg): 2.1 min; Increase in cerebral blood flow (Vp), ratio to papaverine 1 mg/kg ([3]; 2.5 mg/kg): 3.2 |
| Cn1c(=O)c2[nH]cnc2n(C)c1=O [theophylline, reference compound] | 3.44 | 3.71 |  |
